In patent US10757939B2, “Insecticidal and nematocidal active ingredient combinations” (priority 2014, dated 2020):
Where two headings read alike, the source gives them in different places.

Assays:
Spodoptera frugiperda = Spodoptera frugiperda - drench test (corn plants); type: in vivo
Protocol: (§1) Formula for the Efficacy of the Combination of Two Compounds
(§2) Schneider-Orelli: Formula to Calculate Corrected Efficacy % in Pesticide Trials
Spodoptera frugiperda—Drench Test
(§3) • Solvent: 7 parts by weight of dimethylformamide • Emulsifier: 2 parts by weight of alkylaryl poly glycol ether
(§4) In the calculation of the concentration the soil volume has to be included. […] Further test concentrations are prepared by dilution with water.
After the specified period of time mortality in % is determined and corrected according to Schneider-Orelli's formula (see sheet 1). 100% means all the caterpillars have been killed and 0% means none of the caterpillars have been killed. The mortality values determined thus are recalculated using the Colby-formula (see sheet 1).

Meloidogyne incognita [1] = experiment: Meloidogyne incognita - drench test (soil, salad seedlings); type: in vivo
Protocol: as §1, §2
Meloidogyne incognita—Drench Test
• Solvent: 7 parts by weight of dimethylformamide • Emulsifier: 2.5 parts by weight of alkylarylpolyglycolether
as §4
The compound solution is poured into pots filled with soil (loamy sand). A suspension containing eggs and larvae of the southern root-knot nematode (Meloidogyne incognita) is added, salad seeds are spread on the soil surface and covered with quartz sand. The salad seeds germinate and the seedlings grow. Galls develop on the roots.
After the specified period of time the nematicidal activity is determined on the basis of the percentage of gall formation. […] The activity determined thus is recalculated using the Colby-formula (see sheet 1).

Myzus persicae = Myzus persicae - drench test (cabbage plants); type: in vivo; conditions: soil
Protocol: as §1, §2
Myzus persicae—Drench Test
as §3, §4
After the specified period of time mortality in % is determined. 100% means all the aphids have been killed and 0% means none of the aphids have been killed. The mortality values determined thus are recalculated using the Colby-formula (see sheet 1).

Meloidogyne incognita [2] = experiment: Meloidogyne incognita - test (gall formation, sand, salad seedlings); type: in vivo
Protocol: as §1, §2
Meloidogyne incognita—Test […]
Vessels are filled with sand, a solution of the active ingredient, a suspension containing eggs and larvae of the southern root-knot nematode (Meloidogyne incognita) and salad seeds. The salad seeds germinate and the seedlings grow. Galls develop in the roots.
After the specified period the nematicidal activity is determined on the basis of the percentage of gall formation.

Tetranychus urticae = Tetranychus urticae - drench test; OP-resistant (bean plants); type: in vivo; conditions: for mortality at 25 ppm: Tetranychus urticae, soil, 360 h, read-out: Efficacy in % after 15 d (mortality)
Protocol: as §1, §2
Tetranychus urticae—Drench Test; OP-Resistant
as §3, §4
After the specified period of time mortality in % is determined. 100% means all the spider mites have been killed and 0% means none of the spider mites have been killed. The mortality values determined thus are recalculated using the Colby-formula (see sheet 1).

[3] = 168 h, 7 d, read-out: Efficacy in % after 7d
[4] = 240 h, 10 d, read-out: Efficacy in % after 10d

Cc1cc(C(F)(C(F)(F)F)C(F)(F)F)ccc1NC(=O)c1cccc(I)c1C(=O)NC(C)(C)CS(C)(=O)=O [Flubendiamide, reference compound]
Efficacy in % after 14d (Spodoptera frugiperda; 4 ppm): 33%
Efficacy in % after 14d (Spodoptera frugiperda; 8 ppm): 66%

CC(=O)Nc1ccn(-c2c(F)cccc2F)n1 [intermediate (Ia-3), N-[1-(2,6-Difluorophenyl)-1H-pyrazol-3-yl]acetamide]
logP (logP by HPLC-MS): 1.33

Nc1ccn(-c2c(F)cccc2F)n1 [intermediate (Ia-4), 1-(2,6-Difluorophenyl)-1H-pyrazole-3-amine]
logP (logP by HPLC-MS): 1.13

O=C(NCCc1ncc(C(F)(F)F)cc1Cl)c1ccccc1C(F)(F)F [Fluopyram, reference compound]
Efficacy in % after 21d (Meloidogyne incognita [1]; 0.15 ppm): 0%

CN/C(=N\[N+](=O)[O-])NCc1cnc(Cl)s1 [Clothianidin, reference compound]
Efficacy in % after 6d (Spodoptera frugiperda; 2 ppm): 0%
Efficacy in % after 4d (Spodoptera frugiperda; 10 ppm): 0%
Efficacy in % after 6d (Spodoptera frugiperda; 10 ppm): 37%

CNC(=O)c1cc(C#N)cc(C)c1NC(=O)c1cc(Cn2nnc(C(F)(F)F)n2)nn1-c1ncccc1Cl [1-(3-chloropyridin-2-yl)-N-[4-cyano-2-methyl-6-(methylcarbamoyl)phenyl]-3-{[5-(trifluoromethyl)-2H-tetrazol-2-yl]methyl}-1H-pyrazole-5-carboxamide]
pest or weed control at 0.25 ppm (Myzus persicae; [3]): 0%
pest or weed control at 0.25 ppm (Myzus persicae; [4]): 0%

O=C(Nc1cnn(-c2c(F)cccc2F)n1)c1ccccc1C(F)(F)F [Compound (Ic), N-[2-(2,6-Difluorophenyl)-2H-1,2,3-triazol-4-yl]-2-(trifluoromethyl)benzamide]
logP (logP by HPLC-MS): 2.80
Efficacy in % after 14d (Meloidogyne incognita [2]; 0.25 ppm): 0%
Efficacy in % after 14d (Meloidogyne incognita [2]; 1 ppm): 0%
Efficacy in % after 14d (Meloidogyne incognita [2]; 5 ppm): 0%
Efficacy in % after 14d (Meloidogyne incognita [2]; 10 ppm): 70%
mortality at 25 ppm (Tetranychus urticae): 0%
Efficacy in % after 14d (Spodoptera frugiperda; 0.2 ppm): 0%
Efficacy in % after 14d (Spodoptera frugiperda; 0.8 ppm): 0%
Efficacy in % after 4d (Spodoptera frugiperda; 200 ppm): 0%
Efficacy in % after 6d (Spodoptera frugiperda; 200 ppm): 0%
pest or weed control at 2 ppm (Myzus persicae; [3]): 0%
pest or weed control at 20 ppm (Myzus persicae; [3]): 0%
pest or weed control at 2 ppm (Myzus persicae; [4]): 0%

CCOP(=O)(SC(C)CC)SC(C)CC (stereo not drawn) [Cadusafos]
Efficacy in % after 14d (Meloidogyne incognita [2]; 50 ppm): 0%
Efficacy in % after 14d (Meloidogyne incognita [2]; 100 ppm): 0%

CS/C(C)=N\OC(=O)N(C)SN(C)C(=O)O/N=C(\C)SC [Thiodicarb]
Efficacy in % after 14d (Meloidogyne incognita [2]; 50 ppm): 0%

Nc1ccn(-c2ncc(F)cc2F)n1 [intermediate (Ib-1), 1-(3,5-Difluoropyridin-2-yl)-1H-pyrazole-3-amine]
logP (logP by HPLC-MS): 0.81

C/C=C(\C)C(=O)O[C@H]1C[C@@H](OC(C)=O)[C@@]2(C(=O)OC)CO[C@H]3[C@@H](O)[C@@](C)([C@]45O[C@@]4(C)[C@H]4C[C@@H]5O[C@@H]5OC=C[C@@]54O)[C@H]4[C@]1(CO[C@]4(O)C(=O)OC)[C@@H]32 [Azadirachtin]
Efficacy in % after 14d (Meloidogyne incognita [2]; 16 ppm): 0%

CNC(=O)c1cc(C#N)cc(C)c1NC(=O)c1cc(Br)nn1-c1ncccc1Cl [Cyantraniliprole]
Efficacy in % after 14d (Spodoptera frugiperda; 0.08 ppm): 16.5%
pest or weed control at 0.1 ppm (Myzus persicae; [3]): 20%
pest or weed control at 0.1 ppm (Myzus persicae; [4]): 10%

Abamectin
Efficacy in % after 14d (Meloidogyne incognita [2]; 0.02 ppm): 0%
Efficacy in % after 14d (Meloidogyne incognita [2]; 0.08 ppm): 0%

O=[N+]([O-])NC1=NCCN1Cc1ccc(Cl)nc1 [Imidacloprid, reference compound]
Efficacy in % after 6d (Spodoptera frugiperda; 10 ppm): 0%
Efficacy in % after 4d (Spodoptera frugiperda; 50 ppm): 22%
Efficacy in % after 6d (Spodoptera frugiperda; 50 ppm): 12%

O=C(N=c1ccccn1Cc1ccc(Cl)nc1)C(F)(F)F [N-[1-[(6-chloro-3-pyridinyl)methyl]-2(1H)-pyridinylidene]-2,2,2-trifluoro-acetamide]
pest or weed control at 0.1 ppm (Myzus persicae; [3]): 30%
pest or weed control at 0.1 ppm (Myzus persicae; [4]): 20%

CNC(=O)c1cc(Cl)cc(C)c1NC(=O)c1cc(Br)nn1-c1ncccc1Cl [Chlorantraniliprole]
Efficacy in % after 14d (Spodoptera frugiperda; 0.04 ppm): 66.5%
pest or weed control at 0.8 ppm (Myzus persicae; 168 h, 0.8 ppm, 7 d, read-out: Efficacy in % after 7d): 10%
pest or weed control at 1.6 ppm (Myzus persicae; 168 h, 1.6 ppm, 7 d, read-out: Efficacy in % after 7d): 20%
pest or weed control at 0.4 ppm (Myzus persicae; 240 h, 0.4 ppm, 10 d, read-out: Efficacy in % after 10d): 0%

O=C(Nc1ccn(-c2ncc(F)cc2F)n1)c1ccccc1C(F)(F)F [Compound (Ib), N-[1-(3,5-difluoropyridin-2-yl)-1H-pyrazol-3-yl]-2-(trifluoromethyl)benzamide]
mortality at 25 ppm (Tetranychus urticae; drench, bean plants, 25 ppm, after 15 d, single compound): 0%
Efficacy in % after 14d (Spodoptera frugiperda; 40 ppm): 0%
Efficacy in % after 4d (Spodoptera frugiperda; 200 ppm): 0%
Efficacy in % after 6d (Spodoptera frugiperda; 200 ppm): 0%
pest or weed control at 2 ppm (Myzus persicae; [3]): 0%
pest or weed control at 20 ppm (Myzus persicae; [3]): 0%
pest or weed control at 2 ppm (Myzus persicae; [4]): 0%
Efficacy in % after 21d (Meloidogyne incognita [1]; 0.75 ppm): 55%

CC(=O)NC1=NN(c2c(F)cccc2F)CC1 [intermediate (Ia-2), N-[1-(2,6-Difluorophenyl)-4,5-dihydro-1H-pyrazol-3-yl]acetamide]
logP (logP by HPLC-MS): 1.46

Emamectin-benzoate
Efficacy in % after 15 d (mortality) (Tetranychus urticae; drench, bean plants, 2 ppm, after 15 d, single compound): 10%

CNC(=O)Oc1cccc2c1OC(C)(C)C2 [Carbofuran]
Efficacy in % after 14d (Meloidogyne incognita [2]; 50 ppm): 0%
Efficacy in % after 14d (Meloidogyne incognita [2]; 100 ppm): 0%

CC(C)NC(=O)N1CC(=O)N(c2cc(Cl)cc(Cl)c2)C1=O [Iprodione]
Efficacy in % after 14d (Meloidogyne incognita [2]; 50 ppm): 0%
Efficacy in % after 14d (Meloidogyne incognita [2]; 100 ppm): 0%

O=C(Nc1ccn(-c2c(F)cccc2F)n1)c1ccccc1C(F)(F)F [Compound (Ia), N-[1-(2,6-difluorophenyl)-1H-pyrazol-3-yl]-2-(trifluoromethyl)benzamide]
logP (logP by HPLC-MS): 2.68
Efficacy in % after 14d (Meloidogyne incognita [2]; 1 ppm): 0%
Efficacy in % after 14d (Meloidogyne incognita [2]; 5 ppm): 0%
Efficacy in % after 14d (Meloidogyne incognita [2]; 10 ppm): 0%
mortality at 25 ppm (Tetranychus urticae): 10%
Efficacy in % after 14d (Spodoptera frugiperda; 0.2 ppm): 0%
Efficacy in % after 14d (Spodoptera frugiperda; 40 ppm): 0%
Efficacy in % after 4d (Spodoptera frugiperda; 200 ppm): 0%
Efficacy in % after 6d (Spodoptera frugiperda; 200 ppm): 0%
pest or weed control at 2 ppm (Myzus persicae; [3]): 0%
pest or weed control at 20 ppm (Myzus persicae; [3]): 0%
pest or weed control at 2 ppm (Myzus persicae; [4]): 0%
pest or weed control at 20 ppm (Myzus persicae; [4]): 0%
Efficacy in % after 21d (Meloidogyne incognita [1]; 0.75 ppm): 0%

N#Cc1nn(-c2c(Cl)cc(C(F)(F)F)cc2Cl)c(N)c1[S+]([O-])C(F)(F)F (stereo not drawn) [Fipronil]
pest or weed control at 5 ppm (Myzus persicae; [3]): 15%
pest or weed control at 10 ppm (Myzus persicae; [3]): 40%
pest or weed control at 5 ppm (Myzus persicae; [4]): 50%
pest or weed control at 10 ppm (Myzus persicae; [4]): 55%

Nc1cnn(-c2c(F)cccc2F)n1 [intermediate (Ic-8), 2-(2,6-Difluorophenyl)-2H-1,2,3-triazole-4-amine]
logP (logP by HPLC-MS): 1.16
